PubChem BioAssay (NCI)
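Following 48 hours of exposure in 96-well plates, responses at five concentrations were used to interpolate endpoints linearly. At the TGI there is no net growth.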

How the values were obtained:
Assay in all cases: DTP human tumour cell line panel, 48 h
MDA-N = system: MDA-N
M14 melanoma = system: M14 melanoma
SN12C renal = system: SN12C renal
CAKI-1 renal = system: CAKI-1 renal
HCC-2998 colon = system: HCC-2998 colon
HCT-15 colon = system: HCT-15 colon
HOP-92 NSCLC = system: HOP-92 NSCLC
SK-MEL-28 melanoma = system: SK-MEL-28 melanoma
UACC-62 melanoma = system: UACC-62 melanoma
SK-OV-3 ovarian = system: SK-OV-3 ovarian
MDA-MB-435 = system: MDA-MB-435
LOX IMVI melanoma = system: LOX IMVI melanoma
PC-3 prostate = system: PC-3 prostate
UACC-257 melanoma = system: UACC-257 melanoma
SW-620 colon = system: SW-620 colon
RXF 393 renal = system: RXF 393 renal
T-47D breast = system: T-47D breast
NCI-H522 lung = system: NCI-H522 lung
OVCAR-5 ovarian = system: OVCAR-5 ovarian
BT-549 breast = system: BT-549 breast
MDA-MB-231 breast = system: MDA-MB-231 breast
HT29 colon = system: HT29 colon
SNB-19 CNS = system: SNB-19 CNS
SNB-75 CNS = system: SNB-75 CNS
HL-60(TB) leukemia = system: HL-60(TB) leukemia
TK-10 renal = system: TK-10 renal
MCF7 breast = system: MCF7 breast
MALME-3M melanoma = system: MALME-3M melanoma
ACHN renal = system: ACHN renal
NCI-H226 lung = system: NCI-H226 lung
786-0 renal = system: 786-0 renal
SK-MEL-5 melanoma = system: SK-MEL-5 melanoma
KM12 colon = system: KM12 colon
U251 CNS = system: U251 CNS
NCI/ADR-RES ovarian = system: NCI/ADR-RES ovarian
COLO 205 colon = system: COLO 205 colon
EKVX NSCLC = system: EKVX NSCLC
OVCAR-8 ovarian = system: OVCAR-8 ovarian
OVCAR-4 ovarian = system: OVCAR-4 ovarian
A498 renal = system: A498 renal
NCI-H460 lung = system: NCI-H460 lung
SK-MEL-2 melanoma = system: SK-MEL-2 melanoma
HCT-116 colon = system: HCT-116 colon
OVCAR-3 ovarian = system: OVCAR-3 ovarian
SF-539 CNS = system: SF-539 CNS
K-562 leukemia = system: K-562 leukemia
CCRF-CEM leukemia = system: CCRF-CEM leukemia
UO-31 renal = system: UO-31 renal
HS 578T breast = system: HS 578T breast
SF-268 CNS = system: SF-268 CNS
HOP-62 NSCLC = system: HOP-62 NSCLC
A549 NSCLC = system: A549 NSCLC
NCI-H23 lung = system: NCI-H23 lung
DU-145 prostate = system: DU-145 prostate
IGROV1 ovarian = system: IGROV1 ovarian
SR leukemia = system: SR leukemia
RPMI-8226 leukemia = system: RPMI-8226 leukemia
SF-295 CNS = system: SF-295 CNS
MOLT-4 leukemia = system: MOLT-4 leukemia

## O=[N+]([O-])c1cc(C(F)(F)F)ccc1S(=O)(=O)N[C@@H]1CCCC[C@H]1NS(=O)(=O)c1ccc(C(F)(F)F)cc1[N+](=O)[O-]
MDA-N
  TGI: 21.6 µM
M14 melanoma
  TGI: 8.95 µM
SN12C renal
  TGI: 12.6 µM
CAKI-1 renal
  TGI: 10 µM
HCC-2998 colon
  TGI: > 39.9 µM
HCT-15 colon
  TGI: 10.1 µM
HOP-92 NSCLC
  TGI: 8.31 µM
SK-MEL-28 melanoma
  TGI: 33.3 µM
UACC-62 melanoma
  TGI: 13.4 µM
SK-OV-3 ovarian
  TGI: 71.7 µM
MDA-MB-435
  TGI: 8.07 µM
LOX IMVI melanoma
  TGI: 3.24 µM
PC-3 prostate
  TGI: 14.1 µM
UACC-257 melanoma
  TGI: > 100 µM
SW-620 colon
  TGI: 53.8 µM
RXF 393 renal
  TGI: > 28.1 µM
T-47D breast
  TGI: > 50.7 µM
NCI-H522 lung
  TGI: 4.76 µM
OVCAR-5 ovarian
  TGI: > 100 µM
BT-549 breast
  TGI: 8.16 µM
MDA-MB-231 breast
  TGI: 8.02 µM
HT29 colon
  TGI: 22.7 µM
SNB-19 CNS
  TGI: > 31.6 µM
SNB-75 CNS
  TGI: 7.46 µM
HL-60(TB) leukemia
  TGI: 3.74 µM
TK-10 renal
  TGI: > 100 µM
MCF7 breast
  TGI: 5.2 µM
MALME-3M melanoma
  TGI: 8.05 µM
ACHN renal
  TGI: 11.2 µM
NCI-H226 lung
  TGI: > 46.6 µM
786-0 renal
  TGI: > 42.2 µM
SK-MEL-5 melanoma
  TGI: 8.15 µM
KM12 colon
  TGI: 12.1 µM
U251 CNS
  TGI: 17.1 µM
NCI/ADR-RES ovarian
  TGI: 10 µM
COLO 205 colon
  TGI: 6.77 µM
EKVX NSCLC
  TGI: 93.3 µM
OVCAR-8 ovarian
  TGI: 20.2 µM
OVCAR-4 ovarian
  TGI: 29.2 µM
A498 renal
  TGI: > 23.7 µM
NCI-H460 lung
  TGI: > 100 µM
SK-MEL-2 melanoma
  TGI: 9.88 µM
HCT-116 colon
  TGI: 20.1 µM
OVCAR-3 ovarian
  TGI: 7.07 µM
SF-539 CNS
  TGI: 3.56 µM
K-562 leukemia
  TGI: > 36 µM
CCRF-CEM leukemia
  TGI: 7.87 µM
UO-31 renal
  TGI: > 23.2 µM
HS 578T breast
  TGI: 8.27 µM
SF-268 CNS
  TGI: 7.24 µM
HOP-62 NSCLC
  TGI: 30.9 µM
A549 NSCLC
  TGI: > 31.3 µM
NCI-H23 lung
  TGI: 6.92 µM
DU-145 prostate
  TGI: > 75.7 µM
IGROV1 ovarian
  TGI: 7.5 µM
SR leukemia
  TGI: > 26.2 µM
RPMI-8226 leukemia
  TGI: > 22.3 µM
SF-295 CNS
  TGI: 9.38 µM

## COc1cc2c(cc1OC)CN1CCc3ccccc3CC1C2 (stereo not drawn)
MDA-N
  TGI: > 100 µM
M14 melanoma
  TGI: > 100 µM
SN12C renal
  TGI: > 100 µM
CAKI-1 renal
  TGI: > 100 µM
HCC-2998 colon
  TGI: > 100 µM
HCT-15 colon
  TGI: > 100 µM
HOP-92 NSCLC
  TGI: > 100 µM
SK-MEL-28 melanoma
  TGI: > 100 µM
UACC-62 melanoma
  TGI: > 100 µM
SK-OV-3 ovarian
  TGI: > 100 µM
MDA-MB-435
  TGI: > 100 µM
LOX IMVI melanoma
  TGI: > 100 µM
PC-3 prostate
  TGI: > 100 µM
UACC-257 melanoma
  TGI: > 100 µM
SW-620 colon
  TGI: > 100 µM
T-47D breast
  TGI: 75.6 µM
OVCAR-5 ovarian
  TGI: > 100 µM
BT-549 breast
  TGI: > 100 µM
MDA-MB-231 breast
  TGI: > 100 µM
HT29 colon
  TGI: > 100 µM
SNB-19 CNS
  TGI: > 100 µM
SNB-75 CNS
  TGI: > 100 µM
HL-60(TB) leukemia
  TGI: > 100 µM
TK-10 renal
  TGI: 64.3 µM
MCF7 breast
  TGI: > 100 µM
MALME-3M melanoma
  TGI: > 100 µM
ACHN renal
  TGI: > 100 µM
NCI-H226 lung
  TGI: > 100 µM
786-0 renal
  TGI: > 100 µM
SK-MEL-5 melanoma
  TGI: > 100 µM
KM12 colon
  TGI: > 100 µM
U251 CNS
  TGI: > 100 µM
NCI/ADR-RES ovarian
  TGI: > 100 µM
COLO 205 colon
  TGI: > 100 µM
EKVX NSCLC
  TGI: > 100 µM
OVCAR-8 ovarian
  TGI: > 100 µM
MOLT-4 leukemia
  TGI: > 100 µM
OVCAR-4 ovarian
  TGI: 98.2 µM
A498 renal
  TGI: > 100 µM
NCI-H460 lung
  TGI: > 100 µM
SK-MEL-2 melanoma
  TGI: > 100 µM
HCT-116 colon
  TGI: > 100 µM
OVCAR-3 ovarian
  TGI: > 100 µM
SF-539 CNS
  TGI: > 100 µM
K-562 leukemia
  TGI: > 100 µM
CCRF-CEM leukemia
  TGI: > 100 µM
UO-31 renal
  TGI: > 100 µM
HS 578T breast
  TGI: > 100 µM
HOP-62 NSCLC
  TGI: > 100 µM
A549 NSCLC
  TGI: > 100 µM
NCI-H23 lung
  TGI: > 100 µM
DU-145 prostate
  TGI: > 100 µM
IGROV1 ovarian
  TGI: > 100 µM
SR leukemia
  TGI: 23.5 µM
SF-295 CNS
  TGI: > 100 µM
